# Measurements from US20030004157A1, “Use of NK-1 receptor antagonists against benign prostatic hyperplasia” (priority 2001, published 2003).
# Test system: Beagle dogs
# Assay: 39-week toxicity study in the dog
# Format: in vivo
# Settings: 39 weeks; for PROSTATE diff. % vs. control (relative organ weight) / PROSTATE per 100 g BW relative (mean relative organ weight) / TESTES diff. % vs. control (relative organ weight) / TESTES per 100 g BW relative (mean relative organ weight) / PROSTATE absolute (mean absolute organ weight) / TESTES absolute (mean absolute organ weight): male Beagle dogs, oral gavage, SEDDS formulation; for PROSTATE absolute (mean absolute organ weight) / TESTES absolute (mean absolute organ weight): in g (unit assumed); for reduced weights of the prostate gland compared to the control / microscopic changes of the prostate (animals affected): males
# Protocol: In a nine-month study four groups of Beagle dogs (4 animals/gender/group; 5-6 months of age at study start) received oral doses (gavage) of 0 (placebo), 6, 20 and 60 mg/kg/d of 2-(3,5-bis-trifluoromethyl-phenyl)-N-methyl-N-(6-morpholin-4-yl-4-o-tolyl-pyridin-3-yl)-isobutyramide as a SEDDS formulation for 39 weeks. The following variables were investigated: clinical signs, body weights, food consumption, ophthalmoscopy before and at the end of the study, electrocardiography, heart rate, toxicokinetics at different time-points, clinical pathology (hematology, biochemistry, urinalysis) in 3-months intervals, necropsy and tissue preservation, organ weights and histopathology.
# Mean absolute organ weights were adjusted to 100 g of the mean terminal body weights=>mean relative organ weights.
# Mean relative organ weights were compared to the corresponding control=>% deviation.
smiles,measurement,setting,value
"Cc1ccccc1-c1cc(N2CCOCC2)ncc1N(C)C(=O)C(C)(C)c1cc(C(F)(F)F)cc(C(F)(F)F)c1 [2-(3,5-bis-trifluoromethyl-phenyl)-N-methyl-N-(6-morpholin-4-yl-4-o-tolyl-pyridin-3-yl)-isobutyramide]",abnormalities in organ systems other than prostate,"6, 20 and 60 mg/kg/d oral",no overt abnormalities in any other organ system
same,liver changes,"6, 20 and 60 mg/kg/d oral",Mild changes in the liver (hepatocyte hypertrophy with slightly increased organ weights)
same,PROSTATE diff. % vs. control (relative organ weight),6 mg/kg/d,−24%
same,PROSTATE per 100 g BW relative (mean relative organ weight),6 mg/kg/d,0.059
same,TESTES diff. % vs. control (relative organ weight),6 mg/kg/d,+1%
same,TESTES per 100 g BW relative (mean relative organ weight),6 mg/kg/d,0.1803
same,PROSTATE absolute (mean absolute organ weight),6 mg/kg/d,8.066
same,TESTES absolute (mean absolute organ weight),6 mg/kg/d,24.577
same,PROSTATE diff. % vs. control (relative organ weight),20 mg/kg/d,−37%
same,PROSTATE per 100 g BW relative (mean relative organ weight),20 mg/kg/d,0.049
same,TESTES diff. % vs. control (relative organ weight),20 mg/kg/d,+6%
same,TESTES per 100 g BW relative (mean relative organ weight),20 mg/kg/d,0.1804
same,PROSTATE absolute (mean absolute organ weight),20 mg/kg/d,6.413
same,TESTES absolute (mean absolute organ weight),20 mg/kg/d,23.432
same,PROSTATE diff. % vs. control (relative organ weight),60 mg/kg/d,−58%
same,PROSTATE per 100 g BW relative (mean relative organ weight),60 mg/kg/d,0.033
same,TESTES diff. % vs. control (relative organ weight),60 mg/kg/d,+9%
same,TESTES per 100 g BW relative (mean relative organ weight),60 mg/kg/d,0.1853
same,PROSTATE absolute (mean absolute organ weight),60 mg/kg/d,4.429
same,TESTES absolute (mean absolute organ weight),60 mg/kg/d,24.753
same,reduced weights of the prostate gland compared to the control,6 mg/kg/d oral,insignificant trend
same,microscopic changes of the prostate (animals affected),20 mg/kg/d oral,most
same,reduced weights of the prostate gland compared to the control,20 mg/kg/d oral,37%
same,microscopic changes of the prostate (animals affected),60 mg/kg/d oral,all males
same,reduced weights of the prostate gland compared to the control,60 mg/kg/d oral,58%
